Assay results reported in PubChem BioAssay (NCI).
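In this assay, cells in 96-well plates receive the compound at five concentrations for 48 hours. Endpoints are linearly interpolated between the surrounding concentrations. The concentration for full growth arrest is given as TGI.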

What was measured:
Assay in all cases: NCI-60 cell line screen, 48 h
SW-620 colon = system: SW-620 colon
OVCAR-5 ovarian = system: OVCAR-5 ovarian
OVCAR-3 ovarian = system: OVCAR-3 ovarian
SF-268 CNS = system: SF-268 CNS
SK-OV-3 ovarian = system: SK-OV-3 ovarian
U251 CNS = system: U251 CNS
A498 renal = system: A498 renal
HL-60(TB) leukemia = system: HL-60(TB) leukemia
HOP-92 NSCLC = system: HOP-92 NSCLC
K-562 leukemia = system: K-562 leukemia
NCI/ADR-RES ovarian = system: NCI/ADR-RES ovarian
RPMI-8226 leukemia = system: RPMI-8226 leukemia
CAKI-1 renal = system: CAKI-1 renal
HCC-2998 colon = system: HCC-2998 colon
MOLT-4 leukemia = system: MOLT-4 leukemia
SF-295 CNS = system: SF-295 CNS
SR leukemia = system: SR leukemia
LOX IMVI melanoma = system: LOX IMVI melanoma
HT29 colon = system: HT29 colon
EKVX NSCLC = system: EKVX NSCLC
SK-MEL-28 melanoma = system: SK-MEL-28 melanoma
MCF7 breast = system: MCF7 breast
TK-10 renal = system: TK-10 renal
ACHN renal = system: ACHN renal
HCT-116 colon = system: HCT-116 colon
OVCAR-4 ovarian = system: OVCAR-4 ovarian
CCRF-CEM leukemia = system: CCRF-CEM leukemia
IGROV1 ovarian = system: IGROV1 ovarian
HOP-62 NSCLC = system: HOP-62 NSCLC
RXF 393 renal = system: RXF 393 renal
NCI-H460 lung = system: NCI-H460 lung
A549 NSCLC = system: A549 NSCLC
MDA-MB-231 breast = system: MDA-MB-231 breast
SNB-19 CNS = system: SNB-19 CNS
SNB-75 CNS = system: SNB-75 CNS
HS 578T breast = system: HS 578T breast
KM12 colon = system: KM12 colon
HCT-15 colon = system: HCT-15 colon
OVCAR-8 ovarian = system: OVCAR-8 ovarian
SN12C renal = system: SN12C renal
PC-3 prostate = system: PC-3 prostate
T-47D breast = system: T-47D breast
MALME-3M melanoma = system: MALME-3M melanoma
NCI-H522 lung = system: NCI-H522 lung
UO-31 renal = system: UO-31 renal
786-0 renal = system: 786-0 renal
DU-145 prostate = system: DU-145 prostate
MDA-MB-435 = system: MDA-MB-435
SF-539 CNS = system: SF-539 CNS
NCI-H23 lung = system: NCI-H23 lung
NCI-H226 lung = system: NCI-H226 lung
COLO 205 colon = system: COLO 205 colon
SK-MEL-5 melanoma = system: SK-MEL-5 melanoma
MDA-N = system: MDA-N
SK-MEL-2 melanoma = system: SK-MEL-2 melanoma
M14 melanoma = system: M14 melanoma
BT-549 breast = system: BT-549 breast
UACC-257 melanoma = system: UACC-257 melanoma
UACC-62 melanoma = system: UACC-62 melanoma

O=C(O)/C=C/C(=O)Nc1cccc2c1-c1ccccc1C2=O
TGI (SW-620 colon): > 100 µM
TGI (OVCAR-5 ovarian): > 100 µM
TGI (OVCAR-3 ovarian): 5.78 µM
TGI (SF-268 CNS): > 100 µM
TGI (SK-OV-3 ovarian): > 100 µM
TGI (U251 CNS): > 57.5 µM
TGI (A498 renal): > 100 µM
TGI (HL-60(TB) leukemia): 6.9 µM
TGI (HOP-92 NSCLC): > 100 µM
TGI (K-562 leukemia): > 64.1 µM
TGI (NCI/ADR-RES ovarian): > 92.1 µM
TGI (RPMI-8226 leukemia): 62.6 µM
TGI (CAKI-1 renal): > 100 µM
TGI (HCC-2998 colon): 71.8 µM
TGI (MOLT-4 leukemia): > 100 µM
TGI (SF-295 CNS): > 33.8 µM
TGI (SR leukemia): > 57.8 µM
TGI (LOX IMVI melanoma): > 100 µM
TGI (HT29 colon): > 91.9 µM
TGI (EKVX NSCLC): > 100 µM
TGI (SK-MEL-28 melanoma): > 100 µM
TGI (MCF7 breast): > 100 µM
TGI (TK-10 renal): > 29.7 µM
TGI (ACHN renal): > 100 µM
TGI (HCT-116 colon): > 100 µM
TGI (OVCAR-4 ovarian): > 100 µM
TGI (CCRF-CEM leukemia): > 28.3 µM
TGI (IGROV1 ovarian): > 100 µM
TGI (HOP-62 NSCLC): > 100 µM
TGI (RXF 393 renal): > 55 µM
TGI (NCI-H460 lung): > 35.5 µM
TGI (A549 NSCLC): > 100 µM
TGI (MDA-MB-231 breast): 81.3 µM
TGI (SNB-19 CNS): > 100 µM
TGI (SNB-75 CNS): > 58.4 µM
TGI (HS 578T breast): 47.5 µM
TGI (KM12 colon): > 100 µM
TGI (HCT-15 colon): > 100 µM
TGI (OVCAR-8 ovarian): > 100 µM
TGI (SN12C renal): > 100 µM
TGI (PC-3 prostate): > 88.9 µM
TGI (T-47D breast): > 100 µM
TGI (MALME-3M melanoma): > 100 µM
TGI (NCI-H522 lung): 26.3 µM
TGI (UO-31 renal): > 100 µM
TGI (786-0 renal): > 100 µM
TGI (DU-145 prostate): > 81.3 µM
TGI (MDA-MB-435): 9.14 µM
TGI (SF-539 CNS): 19.2 µM
TGI (NCI-H23 lung): > 100 µM
TGI (NCI-H226 lung): > 100 µM
TGI (COLO 205 colon): 36.1 µM
TGI (SK-MEL-5 melanoma): > 100 µM
TGI (MDA-N): 12.1 µM
TGI (SK-MEL-2 melanoma): 32.9 µM
TGI (M14 melanoma): > 100 µM
TGI (BT-549 breast): > 100 µM
TGI (UACC-257 melanoma): > 100 µM
TGI (UACC-62 melanoma): > 100 µM

Cc1cc(C)c2c(=O)n(CC(O)CN3CCN(c4ncccn4)CC3)sc2n1 (configuration not stated)
TGI (SW-620 colon): 60.7 µM
TGI (OVCAR-5 ovarian): 31.1 µM
TGI (OVCAR-3 ovarian): 34.5 µM
TGI (SF-268 CNS): 32.6 µM
TGI (SK-OV-3 ovarian): 32.8 µM
TGI (U251 CNS): 31.7 µM
TGI (A498 renal): 31.1 µM
TGI (HL-60(TB) leukemia): 38.9 µM
TGI (HOP-92 NSCLC): > 100 µM
TGI (K-562 leukemia): > 100 µM
TGI (NCI/ADR-RES ovarian): 78 µM
TGI (RPMI-8226 leukemia): 44 µM
TGI (CAKI-1 renal): 39.5 µM
TGI (HCC-2998 colon): 32.9 µM
TGI (MOLT-4 leukemia): 22.6 µM
TGI (SF-295 CNS): > 100 µM
TGI (SR leukemia): 36.5 µM
TGI (LOX IMVI melanoma): 33.7 µM
TGI (HT29 colon): 29.6 µM
TGI (EKVX NSCLC): 29.5 µM
TGI (SK-MEL-28 melanoma): 36.6 µM
TGI (MCF7 breast): 31.8 µM
TGI (TK-10 renal): 32.1 µM
TGI (ACHN renal): 32.4 µM
TGI (HCT-116 colon): 29 µM
TGI (OVCAR-4 ovarian): 37.3 µM
TGI (CCRF-CEM leukemia): > 100 µM
TGI (IGROV1 ovarian): > 100 µM
TGI (HOP-62 NSCLC): 42 µM
TGI (RXF 393 renal): 33.6 µM
TGI (NCI-H460 lung): 31.2 µM
TGI (A549 NSCLC): 31.2 µM
TGI (MDA-MB-231 breast): 31.3 µM
TGI (SNB-19 CNS): > 100 µM
TGI (SNB-75 CNS): 28.4 µM
TGI (HS 578T breast): 42.8 µM
TGI (KM12 colon): 44.6 µM
TGI (HCT-15 colon): 35.4 µM
TGI (OVCAR-8 ovarian): 38.2 µM
TGI (SN12C renal): 31.6 µM
TGI (PC-3 prostate): 32.8 µM
TGI (T-47D breast): 52.9 µM
TGI (MALME-3M melanoma): 37.5 µM
TGI (NCI-H522 lung): 26.6 µM
TGI (UO-31 renal): 30 µM
TGI (786-0 renal): 27.6 µM
TGI (DU-145 prostate): 30.2 µM
TGI (MDA-MB-435): 30.1 µM
TGI (SF-539 CNS): 31.6 µM
TGI (NCI-H23 lung): 31.6 µM
TGI (NCI-H226 lung): > 100 µM
TGI (COLO 205 colon): 33 µM
TGI (SK-MEL-5 melanoma): 35.5 µM
TGI (MDA-N): 29.5 µM
TGI (SK-MEL-2 melanoma): 32.7 µM
TGI (M14 melanoma): 29.1 µM
TGI (BT-549 breast): 32.3 µM
TGI (UACC-257 melanoma): 30.4 µM
TGI (UACC-62 melanoma): 31.6 µM

Nc1c2c(nc3ccccc13)-c1ccccc1CCC2
TGI (SW-620 colon): 26.2 µM
TGI (OVCAR-5 ovarian): 30 µM
TGI (OVCAR-3 ovarian): 29.8 µM
TGI (SF-268 CNS): 37.2 µM
TGI (SK-OV-3 ovarian): 31 µM
TGI (U251 CNS): 28.3 µM
TGI (A498 renal): 21.4 µM
TGI (HL-60(TB) leukemia): 26.4 µM
TGI (HOP-92 NSCLC): 25.9 µM
TGI (K-562 leukemia): 33.8 µM
TGI (NCI/ADR-RES ovarian): 34.3 µM
TGI (RPMI-8226 leukemia): 33.5 µM
TGI (CAKI-1 renal): 32.5 µM
TGI (HCC-2998 colon): 12.2 µM
TGI (MOLT-4 leukemia): 33 µM
TGI (SF-295 CNS): 19.1 µM
TGI (SR leukemia): 11 µM
TGI (LOX IMVI melanoma): 25.3 µM
TGI (HT29 colon): 25.9 µM
TGI (EKVX NSCLC): 44.8 µM
TGI (SK-MEL-28 melanoma): 27.3 µM
TGI (MCF7 breast): 28.6 µM
TGI (TK-10 renal): 25.2 µM
TGI (ACHN renal): 26.5 µM
TGI (HCT-116 colon): 20.2 µM
TGI (OVCAR-4 ovarian): 35.6 µM
TGI (CCRF-CEM leukemia): 49.1 µM
TGI (IGROV1 ovarian): 37.7 µM
TGI (HOP-62 NSCLC): 22.3 µM
TGI (RXF 393 renal): 23.7 µM
TGI (NCI-H460 lung): 18 µM
TGI (A549 NSCLC): 29.9 µM
TGI (MDA-MB-231 breast): 27.8 µM
TGI (SNB-19 CNS): 55.4 µM
TGI (SNB-75 CNS): 24.2 µM
TGI (HS 578T breast): 43.2 µM
TGI (KM12 colon): 33.4 µM
TGI (HCT-15 colon): 27.3 µM
TGI (OVCAR-8 ovarian): 29.1 µM
TGI (SN12C renal): 36.5 µM
TGI (PC-3 prostate): 36.3 µM
TGI (T-47D breast): 37.5 µM
TGI (MALME-3M melanoma): 27.5 µM
TGI (NCI-H522 lung): 32.4 µM
TGI (UO-31 renal): 22.3 µM
TGI (786-0 renal): 27.1 µM
TGI (DU-145 prostate): 32.8 µM
TGI (MDA-MB-435): 26.3 µM
TGI (SF-539 CNS): 26.2 µM
TGI (NCI-H23 lung): 37.8 µM
TGI (NCI-H226 lung): 28.9 µM
TGI (COLO 205 colon): 27.1 µM
TGI (SK-MEL-5 melanoma): 20.1 µM
TGI (MDA-N): 25.9 µM
TGI (SK-MEL-2 melanoma): 28.2 µM
TGI (M14 melanoma): 25.8 µM
TGI (BT-549 breast): 44.4 µM
TGI (UACC-257 melanoma): 19.4 µM
TGI (UACC-62 melanoma): 22.7 µM
